The source of these data is patent US20180186742A1, “PICOLINAMIDES AS FUNGICIDES” (Dow AgroSciences LLC, priority 2017, published 2018).

SMILES strings stand for the structures. Where two headings read alike, the source gives them in different places.

Common to all, as to type: in vivo
In experiment [1] the test system is Uncinula necator. The experiment is described as follows: Grape powdery mildew (UNCINE), disease control on grape seedlings. The conditions noted are these: Erysiphe necator, 24 h, 1DP (1 Day Protectant) test at 100 ppm. The procedure:
Technical grades of materials were dissolved in acetone, which were then mixed with nine volumes of water containing 110 ppm Triton X-100. The fungicide solutions were applied onto wheat seedlings using an automated booth sprayer to run-off. All sprayed plants were allowed to air dry prior to further handling. All fungicides were evaluated using the aforementioned method for their activity vs. all target diseases, unless stated otherwise. Wheat leaf blotch and brown rust activity were also evaluated using track spray applications, in which case the fungicides were formulated as EC formulations, containing 0.1% Trycol 5941 in the spray solutions. Grape seedlings (variety Carignane) were grown in soil-less Metro mix, with one plant per pot, and used in the test when approximately 1 month old. Plants were inoculated 24 hr after fungicide treatment by shaking spores from infected leaves over test plants. Plants were maintained in a greenhouse set at 20° C. until disease was fully developed. Fungicide formulation, application and disease assessment on sprayed leaves followed the procedures as described in the Example A.

The test system of experiment [2] is Alternaria solani. As to the kind of experiment: Tomato early blight (ALTESO), disease control on tomato plants. The conditions noted are these: 1DP test at 100 ppm, read-out: ALTESO disease control rating. The procedure: Technical grades of materials were dissolved in acetone, which were then mixed with nine volumes of water containing 110 ppm Triton X-100. The fungicide solutions were applied onto wheat seedlings using an automated booth sprayer to run-off. All sprayed plants were allowed to air dry prior to further handling. All fungicides were evaluated using the aforementioned method for their activity vs. all target diseases, unless stated otherwise. Wheat leaf blotch and brown rust activity were also evaluated using track spray applications, in which case the fungicides were formulated as EC formulations, containing 0.1% Trycol 5941 in the spray solutions. Tomato plants (variety Outdoor Girl) were propagated in soil-less Metro mix, with each pot having one plant, and used when 12 to 14 days old. Test plants were inoculated with an aqueous spore suspension of Alternaria solani 24 hr after fungicide treatments. After inoculation the plants were kept in 100% relative humidity (one day in a dark dew chamber followed by two to three days in a lighted dew chamber at 20° C.) to permit spores to germinate and infect the leaf. The plants were then transferred to a growth room at 22° C. for disease to develop. Fungicide formulation, application and disease assessment on the sprayed leaves followed the procedures as described in the Example A.

Experiment [3] concerns Zymoseptoria tritici. The experiment is described as follows: Leaf blotch of wheat (SEPTTR), disease control on wheat seedlings. The settings on record: low volume application at 121.5 g/H. In short, it runs like this: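 Yuma wheat seedlings with the first leaf fully emerged were sprayed to run-off with compound in acetone plus nine volumes of water containing 110 ppm Triton X-100; track-spray tests used EC formulations with 0.1% Trycol 5941. Z. tritici inoculation came before or after treatment, followed by 100% RH dew periods and a 20 °C greenhouse. Percent control was calculated from severity versus untreated plants.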

For experiment [4], the system named is Parastagonospora nodorum. As to the kind of experiment: Wheat glume blotch (LEPTNO), disease control on wheat seedlings. The settings on record: 1DP test at 100 ppm, read-out: LEPTNO disease control rating. The procedure: Technical grades of materials were dissolved in acetone, which were then mixed with nine volumes of water containing 110 ppm Triton X-100. The fungicide solutions were applied onto wheat seedlings using an automated booth sprayer to run-off. All sprayed plants were allowed to air dry prior to further handling. All fungicides were evaluated using the aforementioned method for their activity vs. all target diseases, unless stated otherwise. Wheat leaf blotch and brown rust activity were also evaluated using track spray applications, in which case the fungicides were formulated as EC formulations, containing 0.1% Trycol 5941 in the spray solutions. Wheat plants (variety Yuma) were grown from seed in a greenhouse in 50% mineral soil/50% soil-less Metro mix until the first leaf was fully emerged, with 7-10 seedlings per pot. These plants were inoculated with an aqueous spore suspension of Parastagonospora nodorum 24 hr after fungicide treatments. After inoculation the plants were kept in 100% relative humidity (one day in a dark dew chamber followed by two days in a lighted dew chamber at 20° C.) to permit spores to germinate and infect the leaf. The plants were then transferred to a greenhouse set at 20° C. for disease to develop. Fungicide formulation, application and disease assessment followed the procedures as described in the Example A.

Where [5] appears, read: 24 h, 1 Day Protectant, read-out: SEPTTR disease control, 1DP, LV activity.
[6] abbreviates: 72 h, 3 Day Curative, read-out: SEPTTR disease control, 3DC, LV activity.
Where [7] appears, read: 24 h, 1 Day Protectant, wheat leaf blotch, read-out: SEPTTR 1DP disease control, LV activity.
The mark [8] stands for this setting: 72 h, 3 Day Curative, wheat leaf blotch, read-out: SEPTTR 3DC disease control, LV activity.

As to `CCC(CC)[C@@H](c1ccc(F)cc1C)[C@H](C)OC(=O)[C@H](C)NC(=O)c1nccc(OC)c1OC(C)=O` [Compound 187], the pest or weed control at 100 ppm is greater than 80% in experiment [1], less than 80% in experiment [2] and less than 80% in experiment [4]. The pest or weed control at 121.5 g/ha in experiment [3] (setting [5]) and in experiment [3] (setting [6]) was greater than 80% each time.
Turning to `CCC(C)C(=O)Oc1c(OC)ccnc1C(=O)N[C@@H](C)C(=O)O[C@@H](C)[C@H](c1ccc(F)cc1C)C(C)C` (stereo partly shown) [Compound 355], the pest or weed control at 100 ppm in experiment [1], in experiment [2] and in experiment [4] was greater than 80% throughout. Besides, the pest or weed control at 121.5 g/ha in experiment [3] (setting [5]) and in experiment [3] (setting [6]) was greater than 80% throughout.
`COc1cc[n+]([O-])c(C(=O)N[C@@H](C)C(=O)O[C@@H](C)[C@H](c2ccc(F)cc2C)C(C)C)c1O` [Compound 218]: the pest or weed control at 100 ppm in experiment [1] was greater than 80%; in experiment [2], less than 0%; in experiment [4], greater than 80%. The values for the pest or weed control at 121.5 g/ha in experiment [3] (setting [5]) and in experiment [3] (setting [6]) were greater than 80% and less than 80%, respectively.
As to `COc1ccnc(C(=O)N[C@@H](C)C(=O)O[C@@H](C)[C@H](c2ccccc2C)C(C)C)c1OC(C)=O` [Compound 364], the values for the pest or weed control at 100 ppm in experiment [1], in experiment [2] and in experiment [4] were greater than 80%, less than 80% and less than 80%, respectively. Besides, the pest or weed control at 121.5 g/ha in experiment [3] (setting [7]) and in experiment [3] (setting [8]) was less than 80% in each case.
In the case of `COc1ccnc(C(=O)N[C@@H](C)C(=O)O[C@@H](C)[C@H](c2ccc(F)cc2C)C(C)C)c1OC(=O)CC(C)C` [Compound 356], the pest or weed control at 100 ppm in experiment [1], in experiment [2] and in experiment [4] was greater than 80% in each case. Moreover, the pest or weed control at 121.5 g/ha in experiment [3] (setting [5]) and in experiment [3] (setting [6]) was greater than 80% in each case.
`COc1ccnc(C(=O)N[C@@H](C)C(=O)O[C@@H](C)[C@H](c2ccc(F)cc2C)C(C)C)c1OC(C)=O` [Compound 186]: the pest or weed control at 100 ppm in experiment [1], in experiment [2] and in experiment [4] was greater than 80% throughout. The pest or weed control at 121.5 g/ha in experiment [3] (setting [5]) and in experiment [3] (setting [6]) was greater than 80% throughout.
Regarding `COc1ccnc(C(=O)N[C@@H](C)C(=O)O[C@@H](C)[C@H](c2cccc(C)c2C)C(C)C)c1OC(C)=O` [Compound 363], the pest or weed control at 100 ppm was greater than 80% in experiment [1], less than 0% in experiment [2] and less than 80% in experiment [4]. Also, the pest or weed control at 121.5 g/ha in experiment [3] (setting [5]) and in experiment [3] (setting [6]) was less than 80% throughout.
`COc1ccnc(C(=O)N[C@@H](C)C(=O)O[C@@H](C)[C@H](c2ccccc2C)C(C)C)c1OC(=O)C(C)C` [Compound 375]: the pest or weed control at 100 ppm in experiment [1] is greater than 80%; in experiment [2] it was less than 80%; in experiment [4] it was greater than 80%. For the same compound, the pest or weed control at 121.5 g/ha was less than 80% in experiment [3] (setting [7]) and greater than 80% in experiment [3] (setting [8]).
Consider `COc1ccnc(C(=O)N[C@@H](C)C(=O)O[C@@H](C)[C@H](c2ccc(F)cc2C)C(C)C)c1OC(=O)OC(C)C` [Compound 373], for which the pest or weed control at 100 ppm in experiment [1] was greater than 80%; in experiment [2], less than 80%; in experiment [4], greater than 80%. Moreover, the pest or weed control at 121.5 g/ha in experiment [3] (setting [7]) and in experiment [3] (setting [8]) was greater than 80% throughout.
On to `CCOC(=O)Oc1c(OC)ccnc1C(=O)N[C@@H](C)C(=O)O[C@@H](C)[C@H](c1ccc(F)cc1C)C(C)C` [Compound 372], for which the pest or weed control at 100 ppm in experiment [1], in experiment [2] and in experiment [4] was greater than 80% in each case.
As for `COc1ccnc2c(=O)n([C@@H](C)C(=O)O[C@@H](C)[C@H](c3ccc(F)cc3C)C(C)C)c(=O)oc12` [Compound 217], the figures for the pest or weed control at 100 ppm in experiment [1], in experiment [2] and in experiment [4] were greater than 80%, less than 80% and greater than 80%, respectively. Also, the pest or weed control at 121.5 g/ha in experiment [3] (setting [5]) and in experiment [3] (setting [6]) was greater than 80% throughout.
On to `COc1ccnc(C(=O)N[C@@H](C)C(=O)O[C@@H](C)[C@H](c2cccc(F)c2C)C(C)C)c1OC(C)=O` [Compound 359], for which the pest or weed control at 100 ppm is greater than 80% in experiment [1], less than 80% in experiment [2] and greater than 80% in experiment [4]. Moreover, the pest or weed control at 121.5 g/ha was less than 80% in experiment [3] (setting [5]) and greater than 80% in experiment [3] (setting [6]).
For the compound `COCCC(=O)Oc1c(OC)ccnc1C(=O)N[C@@H](C)C(=O)O[C@@H](C)[C@H](c1ccc(F)cc1C)C(C)C` [Compound 220], the pest or weed control at 100 ppm is greater than 80% in experiment [1], less than 80% in experiment [2] and greater than 80% in experiment [4]. The pest or weed control at 121.5 g/ha in experiment [3] (setting [5]) and in experiment [3] (setting [6]) was greater than 80% each time.
`COc1ccnc(C(=O)N[C@@H](C)C(=O)O[C@@H](C)[C@H](c2ccc(F)cc2C)C(C)C)c1OC(=O)C1CCCC1` [Compound 354]: the pest or weed control at 100 ppm in experiment [1] is greater than 80%; in experiment [2], less than 80%; in experiment [4], greater than 80%. In addition, the pest or weed control at 121.5 g/ha in experiment [3] (setting [5]) and in experiment [3] (setting [6]) was greater than 80% throughout.
Consider `COc1ccnc(C(=O)N[C@@H](C)C(=O)O[C@@H](C)[C@H](c2ccc(F)cc2C)C(C)C)c1OC(=O)C(C)(C)C` [Compound 374], for which the pest or weed control at 100 ppm in experiment [1] was greater than 80%; in experiment [2], less than 80%; in experiment [4], greater than 80%. Further, the pest or weed control at 121.5 g/ha in experiment [3] (setting [7]) and in experiment [3] (setting [8]) was greater than 80% in each case.
Take `CCOC(=O)Oc1c(OC)ccnc1C(=O)N(C(=O)OCC)[C@@H](C)C(=O)O[C@@H](C)[C@H](c1ccc(F)cc1C)C(C)C` [Compound 371]: the pest or weed control at 100 ppm in experiment [1] is greater than 80%; in experiment [2], less than 80%; in experiment [4], greater than 80%.
For `COc1ccnc(C(=S)N[C@@H](C)C(=O)O[C@@H](C)[C@H](c2ccc(F)cc2C)C(C)C)c1OC(C)=O` [Compound 219], the pest or weed control at 100 ppm in experiment [1] is greater than 80%; in experiment [2], less than 80%; in experiment [4], greater than 80%. Moreover, the results for the pest or weed control at 121.5 g/ha in experiment [3] (setting [5]) and in experiment [3] (setting [6]) were less than 80% and greater than 80%, respectively.
Consider `COc1ccnc(C(=O)N[C@@H](C)C(=O)O[C@@H](C)[C@H](c2ccc(F)cc2C)C(C)C)c1OC(=O)C(C)C` [Compound 216], for which the pest or weed control at 100 ppm is greater than 80% in experiment [1], less than 80% in experiment [2] and greater than 80% in experiment [4]. For the same compound, the pest or weed control at 121.5 g/ha in experiment [3] (setting [5]) and in experiment [3] (setting [6]) was greater than 80% throughout.
Regarding `CCC(=O)Oc1c(OC)ccnc1C(=O)N[C@@H](C)C(=O)O[C@@H](C)[C@H](c1ccc(F)cc1C)C(C)C` [Compound 357], the pest or weed control at 100 ppm in experiment [1] is greater than 80%; in experiment [2], less than 80%; in experiment [4], greater than 80%. Also, the pest or weed control at 121.5 g/ha in experiment [3] (setting [5]) and in experiment [3] (setting [6]) was greater than 80% each time.
